No end group written: not given here.
Experiments:
Type in all cases: cell-based
[1] = system: Escherichia coli Bd4462/84, O101, K99; test: Antibacterial lethal concentration, thin agarose plates; conditions: clinical isolate pathogenic to piglets
Experimental: (§1) The polypetide obtained in Example 2 was tested for antibacterial activity against different bacteria, the activity being given as lethal concentrations in micro-moles per liter (μM).
(§2) The four last strains of E. coli were obtained from Olof Soderlind, SVA, Uppsala and they are clinical isolates that are pathogenic to piglets. Typing of O and K antigens are indicated after the strain number. Lethal concentration is the lowest concentration of cecropin that inhibits growth of the respective bacteria in thin agarose plates (see Hultmark, D. et al. EMCO J. 2, 571-576 (1983).

[2] = system: Streptococcus pyogenes; test: as above
Experimental: as §1, §2

[3] = system: Proteus vulgaris, Pv11; test: as above
Experimental: as §1, §2

[4] = system: Escherichia coli 853/67, 0149, K88; test: as above; conditions: clinical isolate pathogenic to piglets
Experimental: as §1, §2

[5] = system: Bacillus megaterium, Bm11; test: as above
Experimental: as §1, §2

[6] = system: Staphylococcus aureus, Cowan 1; test: as above
Experimental: as §1, §2

[7] = system: Salmonella typhimurium, LT2; test: as above
Experimental: as §1, §2

[8] = system: Escherichia coli Bd4468/84, O64, K99; test: as above; conditions: clinical isolate pathogenic to piglets
Experimental: as §1, §2

[9] = system: Pseudomonas aeruginosa, OT97; test: as above
Experimental: as §1, §2

[10] = system: Escherichia coli K12, D21; test: as above; conditions: lowest concentration that inhibits growth in thin agarose plates
Experimental: as §1, §2

[11] = system: Acinetobacter calcoaceticus, Ac11; test: as above
Experimental: as §1, §2

[12] = system: Escherichia coli Bd2221/75, O8, K88; test: as above; conditions: clinical isolate pathogenic to piglets
Experimental: as §1, §2

[13] = system: bacteria; test: Overall comparison of antibacterial activity of the two forms; conditions: comparison of the C-terminal amide with the free-acid form (Example 3)
Experimental: as §1, §2

| Substance | Antibacterial activity as lethal concentration [1] [µM] | Antibacterial activity as lethal concentration [2] [µM] | Antibacterial activity as lethal concentration [3] [µM] | Antibacterial activity as lethal concentration [4] [µM] | Antibacterial activity as lethal concentration [5] [µM] | Antibacterial activity as lethal concentration [6] [µM] | Antibacterial activity as lethal concentration [7] [µM] | Antibacterial activity as lethal concentration [8] [µM] | Antibacterial activity as lethal concentration [9] [µM] | Antibacterial activity as lethal concentration [10] [µM] | Antibacterial activity as lethal concentration [11] [µM] | Antibacterial activity as lethal concentration [12] [µM] | antibiotic quality, amidated form versus free acid [13] |
| --- | --- | --- | --- | --- | --- | --- | --- | --- | --- | --- | --- | --- | --- |
| SWLSKTAKKLENSAKKRISEGIAIAIQGGPR [P1-OH, H2 N-Ser-Trp-Leu-Ser-Lys-Thr-Ala-Lys-Lys-Leu-Glu-Asn-Ser-Ala-Lys-Lys-Arg-Ile- Ser-Glu-Gly-Ile-Ala-Ile-Ala-Ile-Gln-Gly-Gly-Pro-Arg-COOH] | 0.8 | 44 | 12 | 0.6 | 5.3 | > 520 | 1.7 | 0.6 | 13 | 0.4 | 0.5 | 0.7 |  |
| SWLSKTAKKLENSAKKRISEGIAIAIQGGPR-NH2 [P1-NH2] | 0.7 | 19 | 5.7 | 0.9 | 1.8 | > 490 | 0.9 | 0.3 | 5.9 | 0.3 | 0.2 | 0.6 | better antibiotic |

From patent publication US5096886A, “Antibacterial polypeptides” (Kabigen AB, priority 1989, dated 1992)
